Key:
[1] = test system: 585B1-868BTAG iPSC-derived PGCLCs; experiment: hPGCLC maintenance and expansion culture with added Wnt signal transduction inhibitors; growth curve and enrichment score by FACS; format: cell-based, human; conditions: control DMSO
Text: FIG. 14A A drawing showing the suppressive effect of Wnt signal transduction inhibitor on PGCLC dedifferentiation. […] Growth curve of BTAG double-positive cells under each condition in 30 day culture (n=3). The average values of the three experiments were plotted and connected with a straight line. The number after the lowercase letter “c” indicates the number of days of culture.
FIG. 14B A drawing showing the suppressive effect of Wnt signal transduction inhibitor on PGCLC dedifferentiation. […] Enrichment score (n=3) under each condition at C10, C20 and C30. The average values were plotted with red diamonds. Using the DMSO-added group as a control group, a multiple comparison test was performed by Dunnet method. *:p<0.1, **:p<0.05 […]
Further detailed analysis of the FACS analysis results of 585B1-868BTAG (BLIMP1-tdTomato and AP2γ-EGFP) iPS cell-derived proliferated human PGCLC was performed. In the FACS analysis, the expression of the human cell-specific cell surface antigen TRA-1-85 in the population excluding dead cells by DRAQ7 staining was analyzed. […]
Proliferation culture was performed using 585B1-868BTAG iPSC-derived PGCLCs on day 6 of differentiation induction. […] Cells were passaged and counted by FACS every 10 days to draw a proliferation curve. In addition, an enrichment score was calculated at respective culture day numbers.

[2] = test system: BT+AG+ hPGCLC (d6 hPGCLCs from 585B1 BTAG hiPSC); experiment: hPGCLC expansion culture on m220 feeders with combinations of chemical substances and cytokines; BT+AG+ cells counted by FACS; format: cell-based, human; conditions: 10 days of culture, GMEM, 15% KSR, 2.5% FBS, 100 ng/ml SCF, forskolin 10 μM, rolipram 10 μM, cyclosporin A 5 μM, LIF 10 ng/ml, EGF 50 ng/ml, bFGF 20 ng/ml
Experimental: FIG. 1B Exploration of conditions for expanding hPGCLC in vitro. (B) (Left) Scheme for exploration of conditions for BT^+AG^+ cell proliferation. (Right) Plot showing the number of BT^+AG^+ cells after 10 days of culture under the indicated conditions determined by FACS analysis. (Blue) Combination of chemical substances [forskolin (10 μM), rolipram (10 μM), and cyclosporin A (5 μM)] used for BT^+AG^+ cell proliferation. (Yellow) Combination of cytokines [LIF (10 ng/ml), EGF (50 ng/ml), and basic fibroblast growth factor (bFGF: 20 ng/ml)] used for BT^+AG^+ cell proliferation. About 5000 hPGCLCs were used as the starting cell population. […] Conditions for mPGCLC expansion: green. Conditions without additional chemical substance/cytokine: gray.
In order to examine the influence of cytokine and/or chemical substances on hPGCLC proliferation, hPGCLC was treated with MMC in GK15 containing 2.5% FBS and 100 ng/mL SCF, and supplemented with cytokine and/or chemical substances [10 ng/mL LIF; 50 ng/mL EGF; 20 ng/mL bFGF; 10 μM forskolin; 10 μM rolipram; 5 μM cyclosporin A (SIGMA, 30024)], and the cells were passaged every 10 days [see the section of Fluorescence activated cell sorting]. On the day of passage, about 5.0×10^3 cells were plated on 24-well plates (0.5 mL of medium containing 10 μM Y27632), and 0.5 mL of medium free of Y27632 was 0.5 mL added the next day. […]

In the case of O=C(Nc1cccc2cccnc12)c1ccc(N2C(=O)[C@@H]3[C@H](C2=O)[C@@H]2C=C[C@H]3C2)cc1 [IWR1], the “appearance of dedifferentiated cells (enrichment score)” value ([1]; c10, c20, c30, IWR1 at various concentrations, inhibitor comparison at 2.5 μM) was “significantly suppressed” and the “effect on hPGCLC proliferation (growth curve of BTAG double-positive cells)” value ([1]; various concentrations added to maintenance and expansion medium, 30 days of culture, n=3) was “no effect”.

In the case of “FGF: basic fibroblast growth factor, 20 ng/ml”, the “effect on expansion of the number of BT+AG+ cells” value [2] was “positive effect”.

Source: patent US20240271088A1, “METHOD FOR MAINTAINING AND AMPLIFYING HUMAN PRIMORDIAL GERM CELLS / HUMAN PRIMORDIAL GERM CELL-LIKE CELLS” (KYOTO UNIVERSITY, priority 2020, published 2024)
